Reference: patent US20130071368A1, “PREPARATION, USE OF PREPARATION FOR TREATMENT, AND METHOD OF TREATMENT OF INTESTINAL INFECTION” (FAYREFIELD FOODS LIMITED, priority 2007, published 2013)

Tested on: C. difficile infection
Test: Anecdotal treatment of patients with C. difficile infection
Type: in vivo, human
Settings: patient, second presentation
Experimental: A patient was suffering severe symptoms of C. difficile infection, in spite of narrow-spectrum antibiotic treatment, for a period of approximately three months. The treatment protocol was then modified to include, additionally, the oral administration of cranberry puree and GOS at least once daily.
A further patient, presenting for the second time with symptoms of c. difficile was treated initially with metronidazole and then, subsequently, with vancomycin. […] At the point of administration of a mixture of galacto-oligosaccharide and cranberry puree the patient was recording 16 episodes of open bowel in a 24 hour period, was suffering from severe dehydration and was causing significant concern that death might imminently result.

| SMILES | effect of antibiotic treatment on symptoms of c. difficile |
| --- | --- |
| Cc1ncc([N+](=O)[O-])n1CCO [metronidazole] | Neither treatment was having any effect |
| CN[C@H](CC(C)C)C(=O)N[C@H]1C(=O)N[C@@H](CC(N)=O)C(=O)N[C@H]2C(=O)N[C@H]3C(=O)N[C@H](C(=O)N[C@H](C(=O)O)c4cc(O)cc(O)c4-c4cc3ccc4O)[C@H](O)c3ccc(c(Cl)c3)Oc3cc2cc(c3O[C@@H]2O[C@H](CO)[C@@H](O)[C@H](O)[C@H]2O[C@H]2C[C@](C)(N)[C@H](O)[C@H](C)O2)Oc2ccc(cc2Cl)[C@H]1O [vancomycin] | Neither treatment was having any effect |
